The data set can be described thus: solvent given as SMILES.

`Cn1c(=O)c(/N=N/c2cc(S(=O)(=O)O)ccc2C(=O)O)c(O)c2ccccc21`: for the setting “in CS(C)=O”, the fluorescence lifetime was found to be 0.06 ns.
On to `CN1CCc2cc(C3=Cc4cccc[n+]4[B-](F)(F)O3)ccc21`, for which the fluorescence lifetime (in ClC(Cl)Cl) is 3.11 ns.
Take `CCOC(=O)c1ccccc1-c1c2ccc(=[N+](CC)CC)cc-2oc2c1c(=O)oc1c3c4c(cc12)CCCN4CCC3`: the fluorescence lifetime was found to be 0.43 ns (in CCO), 3.44 ns (in ClC(Cl)Cl) and 0.13 ns (in O).
In the case of `CC1(C)C(/C=C/C2=C(Oc3ccc(CCN=C=S)cc3)C(=C/C=C3/N(CCCS(=O)(=O)[O-])c4ccccc4C3(C)C)/CCC2)=[N+](CCCS(=O)(=O)[O-])c2ccccc21`, the fluorescence lifetime (in CO) was 0.873 ns.
`Cc1cc(C)c(B(c2c(C)cc(C)cc2C)c2ccc3ccc4cccc5ccc2c3c45)c(C)c1` showed a fluorescence lifetime (in Cc1ccccc1) of 3 ns.
The compound `CCCCCCN1C(=O)c2cccc3cc(/N=C\c4ccc5c(c4)c4ccccc4n5CC)cc(c23)C1=O` displayed a fluorescence lifetime (in ClC(Cl)Cl) of 8.97 ns.
For the compound `Cc1nnc(-c2ccc(-n3c4ccccc4c4ccccc43)cc2)o1`, the fluorescence lifetime (in CCO) was 2.07 ns.
Consider `COC(=O)c1cc(=O)n(C)c2cc(-c3cc(OC)c(OC)c(OC)c3)sc12`, for which the fluorescence lifetime (in ClCCl) was determined as 1.36 ns.
On to `CCCCCCN1C(=O)c2cccc3cc(/N=C\c4ccc(N5CCOCC5)cc4)cc(c23)C1=O`, for which the fluorescence lifetime (in ClC(Cl)Cl) was determined as 3.84 ns.
Take `COc1cc(/C=C/C(=O)CC(=O)/C=C/c2ccc(O)c(OC)c2)ccc1O`: the fluorescence lifetime was 0.064 ns (in C1CCCCC1); 0.376 ns (in CC#N); 0.194 ns (in CN(C)C=O); 0.148 ns (in CO); 0.196 ns (in CS(C)=O); 0.201 ns (in c1ccccc1).
Consider `C=CCOc1nnc(OCCC(F)(F)C(F)(F)C(F)(F)C(F)(F)C(F)(F)C(F)(F)F)nn1`, for which the fluorescence lifetime came to 63.8 ns (in ClCCl) and 8.7 ns (in OCC(F)(F)F).
Take `CCCCCCCCCCCCN1C(=O)c2c(c3ccc4cc(-c5ccc(OC)cc5)c(OC)cc4c3c3c2ccc2cc(-c4ccc(OC)cc4)c(OC)cc23)C1=O`: the fluorescence lifetime (in ClCCl) amounted to 6.44 ns.
Turning to `COc1ncccc1B(O)O`, the fluorescence lifetime reads like this: (in C1COCCO1) 0.415 ns; (in CC(C)O) 0.399 ns; (in CCCCCC) 0.211 ns; (in CCCCCCC) 0.253 ns; (in CCCCCCCC) 0.299 ns; (in CCCCCCCCO) 0.463 ns. Besides, the fluorescence lifetime (in CCO) stood at 0.499 ns and the fluorescence lifetime (in CO) stood at 1.57 ns.
On to `CC(C)(C)c1ccc2c(c1)c1cc(C(C)(C)C)ccc1n2-c1ccc(C#Cc2ccccc2)cc1`, for which the fluorescence lifetime reads like this: (in CC#N) 4.75 ns; (in CCCCC) 2.07 ns; (in CO) 4.99 ns; (in Cc1ccccc1) 1.77 ns; (in ClC(Cl)Cl) 2.39 ns; (in ClCCl) 3.91 ns.
`O=Cc1ccc(C#CC(C#Cc2ccc(C=O)o2)=Cc2ccc(C=C(C#Cc3ccc(C=O)o3)C#Cc3ccc(C=O)o3)s2)o1` registered a fluorescence lifetime (in ClC(Cl)Cl) of 0.4 ns.
`c1ccc(N(c2ccccc2)c2c3ccccc3c(N(c3ccccc3)c3ccccc3)c3ccccc23)cc1` came in with a fluorescence lifetime (in Cc1ccccc1) of 13 ns.
`C=CCOc1ccc(-c2nc3cc(C(NC(=O)OC(C)(C)C)C(=O)OC)ccc3o2)cc1` (stereo not drawn) returned a fluorescence lifetime (in CC1CCCCC1) of 1.05 ns, a fluorescence lifetime (in CC#N) of 1.14 ns and a fluorescence lifetime (in CO) of 1.21 ns.
`COc1ccc(C#Cc2c3cc4ccccc4cc3c(C#Cc3ccc(OC)cc3)c3cc4ccccc4cc23)cc1`: the fluorescence lifetime (in ClCCl) was found to be 4.6 ns.
For the compound `CN(C)c1ccc(-c2ccc(-c3nc(C#N)c(C#N)n3C)cc2)cc1`, the fluorescence lifetime by setting is: (in C1CCCCC1) 1 ns; (in ClC(Cl)Cl) 2 ns.
With `Cc1cc(C)c(B(c2ccc(-c3cc4ccc5cccc6ccc(c3)c4c56)cc2)c2c(C)cc(C)cc2C)c(C)c1`, the fluorescence lifetime (in Cc1ccccc1) was found to be 65 ns.
As to `CC(C)(C)c1ccc2c(c1)c1cc(C(C)(C)C)ccc1n2-c1ccc(S(=O)(=O)c2ccc(-n3c4ccc(C(C)(C)C)cc4c4cc(C(C)(C)C)ccc43)cc2)cc1`, the fluorescence lifetime came to 5.3 ns (in Cc1ccccc1) and 7.6 ns (in O=P(c1ccccc1)(c1ccccc1)c1ccccc1Oc1ccccc1P(=O)(c1ccccc1)c1ccccc1).
Consider `COc1ccc2cc(C#Cc3ccc([N+](=O)[O-])cc3)ccc2c1`, for which the fluorescence lifetime reads like this: (in C1CCOC1) 0.57 ns; (in ClC(Cl)Cl) 0.77 ns; (in ClCCl) 0.32 ns.
For the compound `C=CC(=O)Oc1ccc2cc(C=C)c(=O)oc2c1`, for the setting “in CC#N”, the fluorescence lifetime stood at 2.81 ns.
`COc1ccc(-c2ccc3c(c2)c2cc(-c4ccc(OC)cc4)ccc2n3-c2ccc(C(=O)c3ccc4sc5ccccc5c4c3)cn2)cc1`: the fluorescence lifetime (in c1cc(-n2c3ccccc3c3ccccc32)cc(-n2c3ccccc3c3ccccc32)c1) is 5.9 ns.
Consider `O=S(=O)([O-])CCC[n+]1c2ccccc2cc2ccccc21`, for which, for the setting “in O”, the fluorescence lifetime worked out at 31.2 ns.
Compound `CN(C)c1ccc(/C=C/C=C/c2ccc(B(O)O)cc2)cc1` displayed a fluorescence lifetime (in C1CCCCC1) of 0.621 ns.
Regarding `CCC1(CC)c2cc(-c3ccc(-c4ccc5c(c4)C(CC)(CC)c4cc(C(C)(C)C)ccc4-5)cc3)ccc2-c2ccc(C(C)(C)C)cc21`, the fluorescence lifetime amounted to 0.74 ns (in CCCCC); 0.69 ns (in CCCCCC); 0.7 ns (in CCCCCCC); 0.7 ns (in CCCCCCCC); 0.72 ns (in CCCCCCCCC); 0.79 ns (in CCCCCCCCCC). For the same compound, the fluorescence lifetime by setting is: (in CCCCCCCCCCCC) 0.78 ns; (in CCCCCCCCCCCCC) 0.82 ns; (in CCCCCCCCCCCCCCC) 0.81 ns; (in CCCCCCCCCCCCCCCC) 0.82 ns; (in CCCCCCCCCCO) 0.79 ns; (in CCCCCCCCCO) 0.87 ns. The fluorescence lifetime is, setting by setting: (in CCCCCCCCO) 0.84 ns; (in CCCCCCCO) 0.8 ns; (in CCCCCCO) 0.81 ns; (in CCCCCO) 0.77 ns; (in CCCCO) 0.79 ns; (in CCCO) 0.72 ns. In addition, the fluorescence lifetime is, setting by setting: (in CCO) 0.82 ns; (in CO) 0.8 ns.
As to `Cc1ccc(C2=C3C=CC(Cl)=[N+]3[B-](F)(F)n3c(Cl)ccc32)cc1`, the fluorescence lifetime is, setting by setting: (in C1CCCCC1) 2.1 ns; (in C1CCOC1) 2.1 ns; (in CC#N) 1.87 ns; (in CCOC(C)=O) 2.07 ns; (in CO) 1.88 ns; (in Cc1ccccc1) 3.26 ns. This compound displayed a fluorescence lifetime (in ClC(Cl)Cl) of 3.66 ns.
`Oc1ccc2cc(C3(O)C4CC5CC(C4)CC3C5)ccc2c1` (stereo not drawn) had a fluorescence lifetime (in CC#N) of 8.14 ns.
Turning to `COc1ccc(-c2cc(-c3ccc(OC)cc3)c3c(N)nc(N4CCCC4)c(C#N)c3n2)cc1`, the fluorescence lifetime is 11.6 ns (in CC#N); 10 ns (in CC(C)=O); 11.6 ns (in CC(C)O); 10.3 ns (in CO); 11.6 ns (in ClC(Cl)Cl); 13.2 ns (in ClCCl). In addition, the fluorescence lifetime (in c1ccccc1) was found to be 12 ns.
In turn, `c1ccn(-c2ccc(-c3cc(-c4ccc(-n5cccc5)cc4)cc(-c4ccc(-n5cccc5)cc4)c3)cc2)c1` displayed a fluorescence lifetime (in ClCCl) of 2.98 ns.
In the case of `O=P1(c2ccccc2)C(c2ccc(N(c3ccccc3)c3ccccc3)cc2)=Cc2cc3ccccc3cc21` (stereo not drawn), the fluorescence lifetime (in ClCCl) was 4.7 ns.
On the same count and under the same terms, in the case of `COc1ccc(/C=C/C2=C3CCc4ccccc4C3=[O+][B-](F)(F)O2)cc1` it was 0.24 ns.
On to `Cc1ccc(C2=C3C=CC(C#Cc4ccccc4)=[N+]3[B-](F)(F)n3c(Cl)ccc32)cc1`, for which the fluorescence lifetime runs as follows: (in C1CCCCC1) 4.31 ns; (in C1CCOC1) 4.24 ns; (in C1COCCO1) 4.43 ns; (in CCOC(C)=O) 4.34 ns; (in CO) 4.25 ns; (in Cc1ccccc1) 4.45 ns. The compound further gave a fluorescence lifetime (in ClC(Cl)Cl) of 4.73 ns.
Turning to `COC(=O)C(NC(=O)OC(C)(C)C)c1ccc2oc(-c3ccc(F)cc3)nc2c1` (stereo not drawn), the fluorescence lifetime is, setting by setting: (in CC1CCCCC1) 1.23 ns; (in CC#N) 1.47 ns; (in CO) 1.53 ns.
Compound `Cc1cc(C)cc(C)c1` came in with a fluorescence lifetime (in C1CCCCC1) of 73 ns.
In turn, `CCCCC(CC)COc1ccc2nc(-c3ccc(-c4ccc(N(C)C)cc4)s3)sc2c1` (stereo not drawn) came in with a fluorescence lifetime (in ClCCl) of 2.28 ns.
Take `Cc1cccc(Nc2ccccc2C(=O)O)c1C`: the fluorescence lifetime came out at 2.7 ns (in C1CCCCC1); 4.91 ns (in C1CCOC1); 2.38 ns (in C1COCCO1); 0.558 ns (in CC#N); 2.46 ns (in CCOC(C)=O); 2.22 ns (in CN(C)C=O).

The values above are taken from the Deep4Chem optical property database.
